Like-named read-outs stand apart in the source and are kept apart here.
Legend:
5-HT2B receptor [1] = target: T1, 5-HT2B receptor (Homo sapiens, UniProt P41595); test: Binding affinity (pKi) by competitive inhibition of [3H]LSD at 5-HT2B; settings: for Ki: pKi at 5-HT2B
5-HT2B receptor [2] = target: T1, 5-HT2B receptor; test: Primary screening: inhibition of radioligand binding at 5-HT2B (NIMH PDSP)
5-HT2A = 5-HT2A (Homo sapiens, UniProt P28223); test: Primary screening: inhibition of radioligand binding at 5-HT2A (NIMH PDSP)
5-HT2C [3] = target: T2, 5-HT2C (Homo sapiens, UniProt P28335); test: Primary screening: inhibition of radioligand binding at 5-HT2C (NIMH PDSP)
T2 sequence (P28335 33-458): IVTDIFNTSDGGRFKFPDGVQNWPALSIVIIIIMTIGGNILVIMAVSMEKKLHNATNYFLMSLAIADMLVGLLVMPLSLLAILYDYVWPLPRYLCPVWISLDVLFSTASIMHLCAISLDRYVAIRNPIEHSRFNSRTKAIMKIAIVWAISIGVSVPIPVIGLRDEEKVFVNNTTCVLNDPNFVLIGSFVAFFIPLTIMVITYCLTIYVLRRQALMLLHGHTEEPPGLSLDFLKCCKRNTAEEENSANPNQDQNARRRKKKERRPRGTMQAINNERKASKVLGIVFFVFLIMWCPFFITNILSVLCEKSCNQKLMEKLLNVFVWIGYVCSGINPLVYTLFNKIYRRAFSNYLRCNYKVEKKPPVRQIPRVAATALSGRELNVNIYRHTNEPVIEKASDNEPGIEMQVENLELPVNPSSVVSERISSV

5-HT2B receptor [4] = target: T1, 5-HT2B receptor; test: Calcium mobilization assay in Flp-In HEK cells (agonist/antagonist functional activity); settings: compound at 10 μM
5-HT2C [5] = target: T2, 5-HT2C; test: Binding affinity (pKi) at 5-HT2C
[6] = read-out: % Inhibition of radioligand binding 5-HT2B
[7] = read-out: % Inhibition of radioligand binding 5-HT2A
[8] = read-out: % Inhibition of radioligand binding 5-HT2C
[9] = read-out: inhibitory activity at 5-HT2B

Sequence of 5-HT2A (P28223 whole entry, species assumed): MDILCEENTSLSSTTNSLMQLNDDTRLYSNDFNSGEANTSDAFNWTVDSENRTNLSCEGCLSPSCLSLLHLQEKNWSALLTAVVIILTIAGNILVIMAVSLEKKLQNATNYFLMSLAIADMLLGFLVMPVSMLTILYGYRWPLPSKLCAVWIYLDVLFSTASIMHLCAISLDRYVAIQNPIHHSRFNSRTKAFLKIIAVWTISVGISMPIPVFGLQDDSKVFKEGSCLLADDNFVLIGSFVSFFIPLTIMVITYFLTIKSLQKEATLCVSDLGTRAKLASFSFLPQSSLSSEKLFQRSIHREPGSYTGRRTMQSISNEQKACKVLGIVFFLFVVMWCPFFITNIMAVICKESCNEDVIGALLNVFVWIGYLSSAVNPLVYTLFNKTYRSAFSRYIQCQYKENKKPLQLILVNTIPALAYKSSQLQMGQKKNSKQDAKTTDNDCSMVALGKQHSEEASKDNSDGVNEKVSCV
T1 sequence (P41595 whole entry): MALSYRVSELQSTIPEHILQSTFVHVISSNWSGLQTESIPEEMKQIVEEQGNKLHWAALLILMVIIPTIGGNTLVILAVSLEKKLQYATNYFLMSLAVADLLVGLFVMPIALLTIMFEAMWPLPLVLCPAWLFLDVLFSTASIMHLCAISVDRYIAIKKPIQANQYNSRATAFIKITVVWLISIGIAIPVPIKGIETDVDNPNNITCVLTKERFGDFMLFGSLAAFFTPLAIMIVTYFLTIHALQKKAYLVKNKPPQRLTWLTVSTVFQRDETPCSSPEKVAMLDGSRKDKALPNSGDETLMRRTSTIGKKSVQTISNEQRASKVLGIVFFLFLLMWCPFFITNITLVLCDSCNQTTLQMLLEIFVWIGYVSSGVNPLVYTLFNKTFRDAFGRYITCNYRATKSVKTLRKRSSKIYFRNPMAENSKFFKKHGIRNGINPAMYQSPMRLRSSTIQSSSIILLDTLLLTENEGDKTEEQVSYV

O=c1cc(COCCc2ccccc2)oc2cccc(O)c12 [Compound 22s, 5-hydroxy-2-(phenethoxymethyl)chromone]
Ki (5-HT2B receptor [1]; Table 7): 1.26 µM
inhibition at 10 µM (5-HT2B receptor [2]; [6]): 77.7%
inhibition at 10 µM (5-HT2A; [7]): 0.3%
inhibition at 10 µM (5-HT2C [3]; [8]): 11.7%

O=c1cc(CCCc2ccccc2)oc2cccc(O)c12 [Compound 22h, 5-hydroxy-2-(3-phenylpropyl)-4H-chromen-4-one]
pKi at 5-HT2B (5-HT2B receptor [1]): 6.6
Ki (5-HT2B receptor [1]; Table 7): 0.24 µM
inhibition at 10 µM (5-HT2B receptor [2]; read-out: % Inhibition 5-HT2B): 70.4%
inhibition at 10 µM (5-HT2B receptor [2]; [6]): 70.4%
inhibition at 10 µM (5-HT2A; read-out: % Inhibition 5-HT2A): 5.4%
inhibition at 10 µM (5-HT2A; [7]): 5.4%
inhibition at 10 µM (5-HT2C [3]; read-out: % Inhibition 5-HT2C): 7.9%
inhibition at 10 µM (5-HT2C [3]; [8]): 7.9%
antagonist activity (5-HT2B receptor [4]; challenged with an EC50 dose (1.6 nM) of 5-HT): 20.5±0.5 % inhibition
agonist activity (5-HT2B receptor [4]; compared to 5-HT): 0.23±0.2 % of the maximal response

O=c1cc(CCc2cccc(O)c2)oc2cccc(O)c12 [Compound 22c, 5-Hydroxy-2-(3′-hydroxy-2-phenylethyl)chromone]
pKi at 5-HT2B (5-HT2B receptor [1]): 5.9
Ki (5-HT2B receptor [1]; Table 7): 1.29 µM
inhibition at 10 µM (5-HT2B receptor [2]; [6]): 76.3%
inhibition at 10 µM (5-HT2B receptor [2]; [9]): 76%
inhibition at 10 µM (5-HT2A; [7]): 39%
inhibition at 10 µM (5-HT2C [3]; [8]): 30.4%

O=c1cc(CCc2ccc(O)cc2)oc2cc(O)ccc12 [Compound 22n, 7-Hydroxy-2-(4′-hydroxy-2-phenylethyl)chromone]
Ki (5-HT2C [5]): 2.51 µM
Ki (5-HT2C [5]; Table 7): 2.45 µM
inhibition at 10 µM (5-HT2B receptor [2]; [6]): 40.8%
inhibition at 10 µM (5-HT2A; [7]): 33.3%
inhibition at 10 µM (5-HT2C [3]; [8]): 53.1%
inhibition at 10 µM (5-HT2C [3]; read-out: inhibitory activity at 5-HT2C): 53%

O=c1cc(COc2ccccc2)oc2cccc(O)c12 [Compound 22a, 5-hydroxy-2-(phenoxymethyl)-4H-chromen-4-one]
Ki (5-HT2B receptor [1]): > 10 µM
Ki (5-HT2B receptor [1]; Table 7): > 10 µM
inhibition at 10 µM (5-HT2B receptor [2]; read-out: % Inhibition 5-HT2B): 50%
inhibition at 10 µM (5-HT2B receptor [2]; [6]): 50%
inhibition at 10 µM (5-HT2B receptor [2]; [9]): 50%
inhibition at 10 µM (5-HT2A; read-out: % Inhibition 5-HT2A): 0.2%
inhibition at 10 µM (5-HT2A; [7]): 0.2%
inhibition at 10 µM (5-HT2C [3]; read-out: % Inhibition 5-HT2C): 7.8%
inhibition at 10 µM (5-HT2C [3]; [8]): 7%

O=c1cc(Cc2cccc3ccccc23)oc2cccc(O)c12 [Compound 22q, 5-hydroxy-2-(naphthalen-1-ylmethyl)chromone]
inhibition at 10 µM (5-HT2B receptor [2]; [6]): 17.4%
inhibition at 10 µM (5-HT2A; [7]): 9.5%
inhibition at 10 µM (5-HT2C [3]; [8]): 2.1%

O=c1cc(COc2cccc3ccccc23)oc2cccc(O)c12 [Compound 22p, 5-hydroxy-2-((naphthalen-1-yloxy)methyl)chromone]
inhibition at 10 µM (5-HT2B receptor [2]; [6]): 11.8%
inhibition at 10 µM (5-HT2A; [7]): -1.1%
inhibition at 10 µM (5-HT2C [3]; [8]): 0.7%

O=c1cc(CCc2cccc(O)c2)oc2cc(O)ccc12 [Compound 22m, 7-Hydroxy-2-(3′-hydroxy-2-phenylethyl)chromone]
inhibition at 10 µM (5-HT2B receptor [2]; [6]): 25.3%
inhibition at 10 µM (5-HT2A; [7]): 23.2%
inhibition at 10 µM (5-HT2C [3]; [8]): 0%

O=c1cc(CCc2cccs2)oc2cccc(O)c12 [Compound 22e, 5-hydroxy-2-(2-(thiophen-2-yl)ethyl)-4H-chromen-4-one]
Ki (5-HT2B receptor [1]): 1.26 µM
Ki (5-HT2B receptor [1]; Table 7): 1.05 µM
inhibition at 10 µM (5-HT2B receptor [2]; read-out: % Inhibition 5-HT2B): 74.8%
inhibition at 10 µM (5-HT2B receptor [2]; [6]): 74.8%
inhibition at 10 µM (5-HT2A; read-out: % Inhibition 5-HT2A): 1.4%
inhibition at 10 µM (5-HT2A; [7]): 1.4%
inhibition at 10 µM (5-HT2C [3]; read-out: % Inhibition 5-HT2C): 19.6%
inhibition at 10 µM (5-HT2C [3]; [8]): 19.6%

O=c1cc(Cc2ccccc2)oc2cccc(O)c12 [Compound 22g, 2-benzyl-5-hydroxy-4H-chromen-4-one]
inhibition at 10 µM (5-HT2B receptor [2]; read-out: % Inhibition 5-HT2B): 30.6%
inhibition at 10 µM (5-HT2B receptor [2]; [6]): 30.6%
inhibition at 10 µM (5-HT2A; read-out: % Inhibition 5-HT2A): 1.4%
inhibition at 10 µM (5-HT2A; [7]): 1.4%
inhibition at 10 µM (5-HT2C [3]; read-out: % Inhibition 5-HT2C): 24.8%
inhibition at 10 µM (5-HT2C [3]; [8]): 24.8%

O=c1cc(CCCCc2ccccc2)oc2cccc(O)c12 [Compound 22i, 5-hydroxy-2-(4-phenylbutyl)-4H-chromen-4-one]
inhibition at 10 µM (5-HT2B receptor [2]; read-out: % Inhibition 5-HT2B): 45.2%
inhibition at 10 µM (5-HT2B receptor [2]; [6]): 45.2%
inhibition at 10 µM (5-HT2A; read-out: % Inhibition 5-HT2A): 5.7%
inhibition at 10 µM (5-HT2A; [7]): 5.7%
inhibition at 10 µM (5-HT2C [3]; read-out: % Inhibition 5-HT2C): 14.7%
inhibition at 10 µM (5-HT2C [3]; [8]): 14.7%

O=c1cc(COc2ccc3ccccc3c2)oc2cccc(O)c12 [Compound 22o, 5-hydroxy-2-((naphthalen-2-yloxy)methyl)chromone]
inhibition at 10 µM (5-HT2B receptor [2]; [6]): 2.9%
inhibition at 10 µM (5-HT2A; [7]): -3%
inhibition at 10 µM (5-HT2C [3]; [8]): -0.7%

O=c1cc(CCc2ccco2)oc2cccc(O)c12 [Compound 22f, 5-Hydroxy-2-(2-(furan-2-yl)ethyl)chromone]
pKi at 5-HT2B (5-HT2B receptor [1]): 5.7
Ki (5-HT2B receptor [1]; Table 7): 1.82 µM
inhibition at 10 µM (5-HT2B receptor [2]; [6]): 68.8%
inhibition at 10 µM (5-HT2A; [7]): 12.4%
inhibition at 10 µM (5-HT2C [3]; [8]): 24.2%

O=c1cc(Cc2cccs2)oc2cccc(O)c12 [Compound 22r, 5-hydroxy-2-(thiophen-2-ylmethyl)-4H-chromen-4-one]
inhibition at 10 µM (5-HT2B receptor [2]; read-out: % Inhibition 5-HT2B): 31.5%
inhibition at 10 µM (5-HT2B receptor [2]; [6]): 31.5%
inhibition at 10 µM (5-HT2A; read-out: % Inhibition 5-HT2A): -4.5%
inhibition at 10 µM (5-HT2A; [7]): -4.5%
inhibition at 10 µM (5-HT2C [3]; read-out: % Inhibition 5-HT2C): 23.5%
inhibition at 10 µM (5-HT2C [3]; [8]): 23.5%

O=c1cc(CCc2ccccc2)oc2cc(O)ccc12 [Compound 22k, 7-hydroxy-2-phenethyl-4H-chromen-4-one]
inhibition at 10 µM (5-HT2B receptor [2]; [6]): 34.2%
inhibition at 10 µM (5-HT2A; [7]): 35.5%
inhibition at 10 µM (5-HT2C [3]; [8]): 33.7%

O=c1cc(CCc2ccccc2O)oc2cccc(O)c12 [Compound 22b, 5-hydroxy-2-(2-hydroxyphenethyl)-4H-chromen-4-one]
inhibition at 10 µM (5-HT2B receptor [2]; [6]): 12.8%
inhibition at 10 µM (5-HT2A; [7]): 24.3%
inhibition at 10 µM (5-HT2C [3]; [8]): 23.8%

O=c1cc(COCc2ccccc2)oc2cccc(O)c12 [Compound 22j, 5-hydroxy-2-((benzyloxy)methyl)chromone]
pKi at 5-HT2B (5-HT2B receptor [1]; Table 7): 5.8 ± 0.05
fold decrease in 5-HT2B affinity compared to 5-HPPC (22h) (5-HT2B receptor [1]; relative to 5-HPPC): 6 fold
inhibition at 10 µM (5-HT2B receptor [2]; [6]): 77.7%
inhibition at 10 µM (5-HT2B receptor [2]; [9]): 78%
inhibition at 10 µM (5-HT2A; [7]): 3.2%
inhibition at 10 µM (5-HT2C [3]; [8]): 42.1%

O=c1cc(CC(O)c2ccccc2)oc2cc(O)ccc12 (stereo not drawn) [Compound 22l, 7-Hydroxy-2-(2′-hydroxy-2-phenylethyl)chromone]
inhibition at 10 µM (5-HT2B receptor [2]; [6]): 16.6%
inhibition at 10 µM (5-HT2A; [7]): 47.9%
inhibition at 10 µM (5-HT2C [3]; [8]): 44%
